# Test results published in patent US9453005B2, “Inhibition of influenza M2 proton channel” (The Trustees Of The University Of Pennsylvania, priority 2008, dated 2016).
# pIC50: −log10 of the molar value. Read-outs that look alike come from different tables or passages of the source.
# Molecular target: AM2 (Influenza A virus, UniProt P0DOF5)
# Assay: biochemical
# Assay type: biochemical
# Details: for % Activity: AM2; for change of potency on replacing or installing the head group: compared with the parent compound (BL-1743; 12 for 13)
# AM2, sequence (P0DOF5 whole entry): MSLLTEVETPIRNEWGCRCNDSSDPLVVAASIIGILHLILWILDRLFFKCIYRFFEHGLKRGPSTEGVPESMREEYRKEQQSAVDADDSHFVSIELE
SMILES,% Activity,change of potency on replacing or installing the head group,further results
"C1CCC2CN(C3=NCCN3)CCC2C1 (mixture of isomers) [Compound 15, 2-(octahydroisoquinolin-2(1H)-yl)-4,5-dihydro-1H-imidazol-1-ium iodide]",,,pIC50: 4.53
"CN1CCC2(CCCCC2)CC1.Cl [Compound 3, 3-methyl-3-azoniaspiro[5.5]undecane chloride]",7%,,"pIC50 (Table 1, read-out: IC50): 4.69"
"NC(=O)N1CCC2(CCCCC2)CC1 [Compound 4, 3-Aza-spiro[5.5]undecane-3-carboxylic acid amide]",30%,no improvement of potency,
"NC(=S)N1CCC2(CCCCC2)CC1 [Compound 5, 3-Aza-spiro[5,5]undecane-3-carbothioic acid amide]",60%,no improvement of potency,
"NS(=O)(=O)N1CCC2(CCCCC2)CC1 [Compound 6, 3-Aza-spiro[5,5]undecane-3-sulfonic acid amide]",6 (14%),Increases of potency,"pIC50 (Table 1, read-out: IC50): 4.82"
"N=C(N)N1CCC2(CCCCC2)CC1 [Compound 7, 3-Aza-spiro[5,5]undecane-3-carboxamidine]",13%,Increases of potency,"pIC50 (Table 1, read-out: IC50): 4.64"
"NC1CCC2(CCCCC2)CC1 [Compound 8, Spiro[5.5]undec-3-ylamine]",11%,,
"O=C1CCCC(=O)C12CCNCC2 [Compound 10, 3-Aza-spiro[5.5]undecane-7,11-dione]",100%,,"pIC50 (SAR of BL-1743, read-out: IC50): < 4.00; activity at 100 μM (at 100 μM tested): no activity"
"S=C1CCCC(=S)C12CCNCC2 [Compound 11, 3-Aza-spiro[5.5]undecane-7,11-dithione]",12%,,"pIC50 (SAR of BL-1743, read-out: IC50): 4.42"
"C1CCC2(C1)CCNCC2 [Compound 12, 8-Aza-spiro[4.5]decane]",12 (16.2%),,"pIC50 (Table 1, read-out: IC50): 5.09"
"C1CCC2(C1)CCN(C1=NCCN1)CC2 [Compound 13, 8-(4,5-Dihydro-1H-imidazol-2-yl)-8-aza-spiro[4.5]decane]",,detrimental to the activity,
"NC1CC2CC1C1CCCC21 (stereo not drawn) [Compound 16, tricyclo[5.2.1.0 2,6]dec-8-ylaminium chloride]",,,pIC50: 4.82
"CNC1CC2CC1C1CCCC21 (stereo not drawn) [Compound 17, N-methyl-N-tricyclo[5.2.1.0 2,6]dec-8-ylaminium chloride]",,,pIC50: 4.87
"OC(c1cnc[nH]1)N1CCC2(CCCCC2)CC1 (stereo not drawn) [Compound 19, (3-Aza-spiro[5.5]undec-3-yl)-(3H-imidazol-4-yl)-methanol]",30%,,
"CC1(C)CCNCC1.Cl [Compound 22, 4,4-Dimethyl-piperidine hydrochloride]",22 (55%),,
"C1CCC2(CC1)CCNC2.Cl [Compound 23, 2-Aza-spiro[4.5]decane hydrochloride]",23 (6%),,
